In ChEMBL document CHEMBL1201862, “PubChem BioAssay data set” (2004):
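Cultured in 96-well plates, cells were exposed to test compound for 48 hours across five concentrations. Abbreviation: GI50, concentration required for 50% inhibition of growth.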 Calls of active or inactive are those of the source. No stated cut-off is given here; in the data, active = GI50 up to about 1.1 µM and inactive = higher.

Experiments:
Assay in all cases: inhibition of tumour cell growth, NCI panel, 48 h
[1] = tested on: A549
[2] = tested on: CCRF-CEM
[3] = tested on: DU-145
[4] = tested on: HT-29
[5] = tested on: K562
[6] = tested on: LOX IMVI
[7] = tested on: MCF7
[8] = tested on: MDA-MB-231
[9] = tested on: MDA-N
[10] = tested on: Malme-3M
[11] = tested on: NCI-H23
[12] = tested on: NCI-H460
[13] = tested on: NCI/ADR-RES
[14] = tested on: SK-MEL-28
[15] = tested on: SK-MEL-5
[16] = tested on: U-251
[17] = tested on: UACC-62
[18] = tested on: SNB-75
[19] = tested on: HL-60

Row | SMILES | GI50 [1] | GI50 [2] | GI50 [3] | GI50 [4] | GI50 [5] | GI50 [6] | GI50 [7] | GI50 [8] | GI50 [9] | GI50 [10] | GI50 [11] | GI50 [12] | GI50 [13] | GI50 [14] | GI50 [15] | GI50 [16] | GI50 [17] | GI50 [18] | GI50 [19]
1 | CN(C(=O)Cc1ccccc1)n1cn[n+](CC(=O)OC(C)(C)C)c1 | > 10 µM (inactive) | > 10 µM (inactive) | > 10 µM (inactive) | > 10 µM (inactive) | > 10 µM (inactive) | > 10 µM (inactive) | > 10 µM (inactive) | > 10 µM (inactive) | > 10 µM (inactive) | > 10 µM (inactive) | > 10 µM (inactive) | > 10 µM (inactive) | > 10 µM (inactive) | > 10 µM (inactive) | > 10 µM (inactive) | > 10 µM (inactive) | > 10 µM (inactive) |  | 
2 | Cc1n2nc(N)sc2n[n+]1Cc1ccccc1 | 70.6 µM (inactive) | > 100 µM (inactive) | > 100 µM (inactive) | > 100 µM (inactive) | 47.5 µM (inactive) | > 100 µM (inactive) | > 100 µM (inactive) |  | > 100 µM (inactive) | > 100 µM (inactive) | > 100 µM (inactive) | > 10 µM (inactive) | > 100 µM (inactive) | > 100 µM (inactive) | 49.5 µM (inactive) | 77.3 µM (inactive) | 47.4 µM (inactive) | > 100 µM (inactive) | 
3 | COC(=O)C1=C(C(=O)OC)SC(=C2S[C@@H]3[C@@H]4C[C@H]([C@@H]3S2)[C@H]2C(=O)OC(=O)[C@@H]42)S1 | > 100 µM (inactive) | > 100 µM (inactive) | > 100 µM (inactive) | > 100 µM (inactive) | > 100 µM (inactive) | > 100 µM (inactive) | > 100 µM (inactive) | > 100 µM (inactive) |  | > 100 µM (inactive) | > 100 µM (inactive) |  | > 100 µM (inactive) | > 100 µM (inactive) | > 100 µM (inactive) | > 100 µM (inactive) | > 100 µM (inactive) |  | > 100 µM (inactive)
4 | CCOC(=O)c1sc2c(c1O)c(=O)n(-c1ccccc1)c(=S)n2-c1ccccc1 | 55.3 µM (inactive) | 32.7 µM (inactive) | 71.8 µM (inactive) | 80.5 µM (inactive) | 42.8 µM (inactive) | > 100 µM (inactive) | 67.6 µM (inactive) | > 100 µM (inactive) | > 100 µM (inactive) | > 100 µM (inactive) | 91.4 µM (inactive) | > 100 µM (inactive) |  | > 100 µM (inactive) | > 100 µM (inactive) | 76.6 µM (inactive) | 84.3 µM (inactive) | 37.5 µM (inactive) | 35.1 µM (inactive)
5 | CCCNC(=S)N/N=C/c1cccc(C)n1 | 26.4 µM (inactive) | 2.69 µM (inactive) |  | 18 µM (inactive) | 31.7 µM (inactive) | 16.6 µM (inactive) | 41.2 µM (inactive) | 33.7 µM (inactive) | 30.6 µM (inactive) | 12.7 µM (inactive) | 28.9 µM (inactive) |  | 31 µM (inactive) |  | 31.7 µM (inactive) | 21.9 µM (inactive) | 20.8 µM (inactive) |  | 25.9 µM (inactive)
6 | CC(C)(C)OC(=O)NCCNC(=O)OCc1ccccc1 | > 100 µM (inactive) |  | > 100 µM (inactive) | > 100 µM (inactive) | 85.9 µM (inactive) |  | > 100 µM (inactive) |  | > 100 µM (inactive) | > 100 µM (inactive) | > 100 µM (inactive) | > 100 µM (inactive) | > 100 µM (inactive) | > 100 µM (inactive) | 50.6 µM (inactive) | > 100 µM (inactive) | > 100 µM (inactive) | > 100 µM (inactive) | 
7 | COc1cc(S(=O)(=O)Nc2ccc(-c3csc(N4C(=O)C(Cl)C4c4ccccc4O)n3)cc2)ccc1Cl (stereo not drawn) | > 100 µM (inactive) | 2.73 µM (inactive) | 14.3 µM (inactive) | 36.8 µM (inactive) | 31 µM (inactive) | 1.49 µM (inactive) | 21 µM (inactive) |  | 27.5 µM (inactive) | 24.1 µM (inactive) | 23.6 µM (inactive) | 47.5 µM (inactive) | > 100 µM (inactive) | 38.1 µM (inactive) | 37.1 µM (inactive) |  | 17 µM (inactive) | 62.7 µM (inactive) | 21.8 µM (inactive)
8 | Fc1ccccc1CN1COc2c(cc(Cl)c3cccnc23)C1 | 2.16 µM (inactive) |  | 2.62 µM (inactive) | 7.85 µM (inactive) | 1.3 µM (inactive) |  | 3.33 µM (inactive) | 0.422 µM (active) |  | 2.28 µM (inactive) | 1.6 µM (inactive) | 0.533 µM (active) | 0.0425 µM (active) | 4.25 µM (inactive) | 0.713 µM (active) | 1.56 µM (inactive) | 0.427 µM (active) | 1.56 µM (inactive) | 0.265 µM (active)
9 | Cc1ccc(C)c2c1NC(=O)/C2=N\Nc1ccccc1[N+](=O)[O-] | > 100 µM (inactive) | > 100 µM (inactive) | > 100 µM (inactive) |  | 74.1 µM (inactive) | > 100 µM (inactive) | > 100 µM (inactive) | > 100 µM (inactive) | > 100 µM (inactive) |  | > 100 µM (inactive) | > 100 µM (inactive) |  | > 100 µM (inactive) | > 100 µM (inactive) | 85.5 µM (inactive) | > 100 µM (inactive) | > 100 µM (inactive) | > 100 µM (inactive)
10 | N#Cc1c(-c2ccc(Cl)cc2)c(C#N)c(=O)n(NS(=O)(=O)c2ccccc2)c1O | 28.8 µM (inactive) | 25.2 µM (inactive) |  | 34.8 µM (inactive) | 29.1 µM (inactive) | 15.1 µM (inactive) | 16.9 µM (inactive) | 23.3 µM (inactive) | 19.8 µM (inactive) | 49 µM (inactive) |  | 19.9 µM (inactive) | 35.3 µM (inactive) | 26.4 µM (inactive) | 17.1 µM (inactive) | 32.7 µM (inactive) | 15.1 µM (inactive) | 34 µM (inactive) | 16.1 µM (inactive)
11 | CC(C)(C)c1cc(/C=C2/NC(=O)NC2=O)cc(C(C)(C)C)c1O |  | 11.9 µM (inactive) | 15.6 µM (inactive) | 11.7 µM (inactive) | 13.2 µM (inactive) | 15.8 µM (inactive) | 13 µM (inactive) | 12.6 µM (inactive) |  | 19.5 µM (inactive) | 15 µM (inactive) | 14.5 µM (inactive) | 14.1 µM (inactive) | 17.5 µM (inactive) | 13.7 µM (inactive) | 12.8 µM (inactive) | 16.5 µM (inactive) | 12.3 µM (inactive) | 10.8 µM (inactive)
12 | O=C1Nc2c(Cl)cc(Cl)cc2/C1=N/NC(=O)c1ccccc1O | 13.2 µM (inactive) | 11.2 µM (inactive) |  | 18.7 µM (inactive) |  | 12.9 µM (inactive) | 19.1 µM (inactive) | 15.6 µM (inactive) | 14.4 µM (inactive) | 13.6 µM (inactive) | 18.2 µM (inactive) | 13.5 µM (inactive) | 11.5 µM (inactive) | 15.5 µM (inactive) | 14.8 µM (inactive) | 8.51 µM (inactive) | 12.1 µM (inactive) | 9.77 µM (inactive) | 15.1 µM (inactive)
13 | CS/C(=N\C#N)S/C=C/C(=O)c1ccc(Cl)cc1 | > 100 µM (inactive) | 78.5 µM (inactive) | 25.6 µM (inactive) | 21.8 µM (inactive) | 10.5 µM (inactive) |  | 26.4 µM (inactive) |  |  | 26.4 µM (inactive) | 24.9 µM (inactive) | > 100 µM (inactive) | 27.7 µM (inactive) | 20.6 µM (inactive) | 15.9 µM (inactive) | 31.9 µM (inactive) | 22.9 µM (inactive) | 43 µM (inactive) | 8.15 µM (inactive)
14 | O=c1/c(=C\c2ccccc2)sc2n1C(c1ccccc1)C1(O)CCCCC1N=2 (stereo not drawn) | 78.3 µM (inactive) | 91 µM (inactive) |  | > 100 µM (inactive) | 45.2 µM (inactive) | > 100 µM (inactive) | 43.7 µM (inactive) | 95.7 µM (inactive) | > 100 µM (inactive) | > 100 µM (inactive) | 56.9 µM (inactive) | 90.2 µM (inactive) |  | > 100 µM (inactive) | > 100 µM (inactive) | > 100 µM (inactive) | > 100 µM (inactive) | > 100 µM (inactive) | 36 µM (inactive)
15 | CC1C(c2cc(C(C)(C)C)c(O)c(C(C)(C)C)c2)c2cc3c(cc2OC1N1CCOCC1)OCO3 (stereo not drawn) | 16.6 µM (inactive) | > 100 µM (inactive) | 30.1 µM (inactive) | 19.2 µM (inactive) | 27.1 µM (inactive) | 20.3 µM (inactive) | 21.2 µM (inactive) |  | 26.9 µM (inactive) |  | 28.1 µM (inactive) | 21.6 µM (inactive) | 27.4 µM (inactive) | 15.6 µM (inactive) | 17.1 µM (inactive) |  | 26.4 µM (inactive) | 4.34 µM (inactive) | 
16 | c1ccc2c(c1)OC(N1CCCC1)c1cnc(N3CCOCC3)nc1-2 (stereo not drawn) | 57.7 µM (inactive) | 31.9 µM (inactive) | 66.8 µM (inactive) | 53.6 µM (inactive) | 62.5 µM (inactive) | 54.3 µM (inactive) | 10.8 µM (inactive) | 45.1 µM (inactive) |  | 21.9 µM (inactive) | 15.8 µM (inactive) | 53.3 µM (inactive) |  | > 100 µM (inactive) |  | > 100 µM (inactive) | 43.1 µM (inactive) | 17.1 µM (inactive) | 74.1 µM (inactive)
17 | NCc1ccc(C(=O)O)cc1 [AMINOMETHYLBENZOIC ACID] | > 100 µM (inactive) |  | > 100 µM (inactive) | > 100 µM (inactive) | > 100 µM (inactive) | > 100 µM (inactive) |  | > 100 µM (inactive) | > 100 µM (inactive) | > 100 µM (inactive) | > 100 µM (inactive) | > 100 µM (inactive) | > 100 µM (inactive) | > 100 µM (inactive) | > 100 µM (inactive) | > 100 µM (inactive) | > 100 µM (inactive) |  | > 100 µM (inactive)
